Laboratory results published in patent publication US6432956B1, “Method for treatment of sleep apneas” (priority 1990, dated 2002).

Assays:
respiration in cats = conditions: Garner, et al. 1989; cited from earlier work
[1] = system: respiration in normal male volunteers; conditions: Rapoport, et al. 1988; cited from earlier work
[2] = system: patients suffering from obstructive sleep apnea; test: Clinical experience: single dose of buspirone at bedtime in patients with obstructive sleep apnea; type: in vivo, human (patients)
Description: The effectiveness of azapirone treatment of patients suffering from sleep apneas can be exemplified by clinical experience with buspirone. […] One of the most consistent physiological measurements of improvement was a 10 to 20% increase in blood oxygen levels, an indication of improved respiratory efficiency.

[3] = single dose at bedtime, patients suffering from obstructive sleep apnea

For `O=C1CC2(CCCC2)CC(=O)N1CCCCN1CCN(c2ncccn2)CC1` [buspirone], the effect on respiration (respiration in cats) is listed as “stimulatory effect on respiration”, the effect on respiration [1] is listed as “stimulatory effect on respiration” and the “effectiveness in treating sleep apneas” value ([2]; patients suffering from sleep apneas) is listed as “effective”. For the same compound, the “episodes of sleep disturbance” value [2, 3] was “marked reduction in episodes of sleep disturbance”, the sleep efficiency [2, 3] was “increased sleep efficiency” and the total sleep time [2, 3] was “gain in total sleep time”.
